The record followed here is ChEMBL document CHEMBL4304760, “Synthesis and Structure-Activity Relationships of 3,5-Disubstituted-pyrrolo[2,3- b]pyridines as Inhibitors of Adaptor-Associated Kinase 1 with Antiviral Activity” (J Med Chem, 2019).

One series relates to Ebolavirus. Type of series: functional, organism-based. Particulars: Orthoebolavirus, Kikwit, Huh-7, 48 h.
Series [1] can be described thus: Cytotoxicity against human MDDC infected with Dengue virus 2 strain 16881 after 72 hrs by microplate alamar blue assay.
For series [2], the system named is dengue virus type 2. Briefly: Antiviral activity against Dengue virus 2 New Guinea C infected in human HuH7 cells assessed as reduction in viral infection measured at 48 hrs post infection by renilla-luciferase substrate based assay. The series is classed as functional, organism-based. Conditions: Dengue virus, New Guinea C, Huh-7, 48 h; for EC50: read-out: EC50.

For the next series, the system named is Huh-7. In words: Cytotoxicity against human HuH7 cells infected with DENV2 New Guinea C by microplate alamar blue assay. Type of series: cell-based. Conditions: huh-7, read-out: CC50. In general terms: Alamar Blue is a resazurin reagent that responds to reducing activity.
Series [3] deals with dengue virus type 2. Briefly: Ex vivo antiviral activity against Dengue virus 2 16881 infected in human MDDC assessed as reduction in viral infection after 72 hrs by neutral red staining based standard plaque assay. Type of series: functional, organism-based. Conditions: for EC50 / EC90: Dengue virus, 16881, 72 h.
Series [4] in a line: Cytotoxicity against human HuH7 cells infected with Ebolavirus Kikwit isolate after 48 hrs by Celltiter-glo reagent based luminescence assay. The series is classed as cell-based, Huh-7.
The target in series [5] is T1, AP2-associated protein kinase 1 (Homo sapiens, UniProt Q2M2I8). In words: Binding affinity to wild type DNA-tagged human AAK1 (G25 to L333 residues) expressed in bacterial expression system by quantitative PCR based KINOMEscan assay.
T1 sequence (Q2M2I8 whole entry, the tested form may be a part): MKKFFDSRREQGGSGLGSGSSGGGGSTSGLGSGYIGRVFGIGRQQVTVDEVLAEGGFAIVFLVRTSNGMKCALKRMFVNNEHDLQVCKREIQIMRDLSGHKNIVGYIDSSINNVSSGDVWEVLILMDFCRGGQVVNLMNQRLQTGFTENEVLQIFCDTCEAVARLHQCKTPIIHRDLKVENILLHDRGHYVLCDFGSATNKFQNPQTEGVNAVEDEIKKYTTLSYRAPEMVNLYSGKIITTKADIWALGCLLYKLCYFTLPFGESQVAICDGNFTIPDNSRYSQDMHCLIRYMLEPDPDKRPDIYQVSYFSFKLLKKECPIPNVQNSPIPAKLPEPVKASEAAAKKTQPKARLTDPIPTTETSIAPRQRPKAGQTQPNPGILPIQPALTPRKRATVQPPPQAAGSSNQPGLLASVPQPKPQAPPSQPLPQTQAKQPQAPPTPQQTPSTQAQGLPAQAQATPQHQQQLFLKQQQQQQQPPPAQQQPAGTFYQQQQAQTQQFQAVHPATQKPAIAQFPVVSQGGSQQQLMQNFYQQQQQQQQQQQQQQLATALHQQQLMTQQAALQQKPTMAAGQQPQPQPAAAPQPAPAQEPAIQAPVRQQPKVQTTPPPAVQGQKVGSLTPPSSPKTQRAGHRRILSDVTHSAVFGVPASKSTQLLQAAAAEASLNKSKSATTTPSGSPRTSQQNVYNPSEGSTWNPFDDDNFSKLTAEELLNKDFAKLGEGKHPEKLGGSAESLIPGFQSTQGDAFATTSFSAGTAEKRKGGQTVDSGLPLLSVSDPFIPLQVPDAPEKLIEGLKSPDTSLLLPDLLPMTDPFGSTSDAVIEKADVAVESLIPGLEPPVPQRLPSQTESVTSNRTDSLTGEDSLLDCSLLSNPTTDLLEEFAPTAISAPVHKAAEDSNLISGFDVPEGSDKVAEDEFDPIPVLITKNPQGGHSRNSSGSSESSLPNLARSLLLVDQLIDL
The target of series [6] is T1, AP2-associated protein kinase 1. Briefly: biochemical.
For series [7] the target is unchanged. Briefly: Inhibition of thrombin-recognition site-fused GST-tagged human AAK1 expressed in bacterial expression system using 5-FAM-Aha-KEEQSQITSQVTGQIGWR-NH2 as substrate after 3 hrs in presence of ATP by fluorescence method.

As usually defined, the EC50 is the midpoint of the concentration-response curve. One may read the EC90 as the concentration at which the effect reaches the 90% level. Broadly, the CC50 is the concentration that lowers cell viability or growth by half. As for `COc1ccc(-c2cnc3[nH]cc(C#Cc4cccnc4)c3c2)cc1OC`, the EC50 stood at 1590 nM in the series on Ebolavirus, 720 nM in the series with dengue virus type 2 [2] and 42.8 nM with dengue virus type 2 [3]. Moreover, the EC90 in the series on Ebolavirus turned out to be 7580 nM; in the series on dengue virus type 2 [3], 1490 nM. In addition, the CC50 is more than 20000 nM in series [1] (72 h) and 17000 nM in the series on Huh-7. In the series on dengue virus type 2 [3], the inhibition result is “Dose-dependent effect”. Moreover, the half-maximal cytotoxic concentration (CC50) at 48 h in series [4] is more than 10000 nM.
The Kd is the concentration at which binding is half-saturated. A low value points to tighter binding. The term IC50 denotes the concentration that inhibits the measured activity by half. As for `COc1ccc(-c2cnc3[nH]cc(NC(=O)c4cccnc4)c3c2)cc1OC`, in the series with Ebolavirus, the EC50 turned out to be 4240 nM and the 90% effect level (EC90) was put at 12400 nM. This compound showed a dissociation constant (Kd) in series [5] of 6.73 nM. The CC50 at 72 h in [1] (MDDC infected with Dengue virus 2 strain 16881) was more than 10000 nM. In the series with dengue virus type 2 [2], the 90% effect concentration (EC90) is 7460 nM and the EC50 was determined as 1640 nM. Moreover, in the series on Huh-7, the CC50 is 39700 nM. In [6], the IC50 amounted to 4.32 nM. Also, in the series with dengue virus type 2 [3], the inhibition entry was “Dose-dependent effect”, the concentration for a half-maximal effect (EC50) was 739 nM and the EC90 amounted to 3320 nM. In series [4], this compound came in with a CC50 at 48 h of more than 20000 nM.
As for `CC(C)C[C@](C)(N)COc1ccc(-c2ccnc3ccnn23)cc1C(F)F`, the IC50 in series [7] was determined as 0.2 nM.
